According to patent US9635854B2, “Controlling red rice with mesotrione” (FMC Corporation, priority 2014, dated 2017):
Where two headings read alike, the source gives them in different places.

Assays:
large crabgrass = experiment: Direct seeded dryland rice test, pre-emergent (FIG. 2); format: in vivo; conditions: pre-emergent treatment at 25 g ai/ha
yellow nutsedge = experiment: as above; format: in vivo; conditions: pre-emergent treatment at 25 g ai/ha
[1] = test system: Rice (Oryza sativa) 'Cybonee'; conditions: PRE, direct-seeded flooded rice
Experimental: (§1) Rice (Oryza sativa) crop varieties (‘Cybonee’, ‘Jupiter’, and ‘Taggart’) and red rice (Oryza sativa) were planted in 6 inch plastic pots containing sterile top soil. Eight to ten seeds of each species were seeded at 12 o'clock, 3 o'clock, 6 o'clock or 9 o'clock around the pot. The pots were watered after planting. […] The test solutions were applied using a compressed air track spray chamber at 30 gallons per acre using a Teejet 8001E nozzle at 40 PSI, three replicates per test rate. After treatment, the pots were watered lightly and transferred to trays in a greenhouse. After the plants were two inches in height the trays were flooded with water and maintained as such for 14 days. The trays were emptied of water and the pots were maintained by regular watering for 4 more days. At 14, 21 and 28 days after treatment (DAT) the plants were evaluated versus untreated control pots containing the same rice and weeds using a scale of 0% (no control) to 100% (complete plant death).

[2] = test system: Rice (Oryza sativa) 'Jupiter'; conditions: PRE, direct-seeded flooded rice
Experimental: as §1

[3] = test system: Rice (Oryza sativa) 'Taggart'; conditions: PRE, direct-seeded flooded rice
Experimental: as §1

red rice (Oryza sativa) [4] = experiment: Pre-emergent evaluation on dryland rice, red rice control; format: in vivo; conditions: for Percent red rice control: PRE, direct-seeded dryland rice
Description: Rice (Oryza sativa) was planted in 6″ by 10″ fiber flats filled with sterile top soil. Five rows were made in each flat and the three rice varieties (′Cybonee, ‘Jupiter’, and ‘Taggart’) were planted in the center 3 rows and a row of red rice (Oryza sativa) was planted on either end of the flat. The flats were watered after planting. After application flats were placed in the greenhouse and lightly watered. […] The flats were moved to a greenhouse and watered and fertilized routinely. Studies were conducted using randomized complete block design with four replications. In both studies, visual percent red rice control and rice injury were recorded at 14, 21, and 28 days after treatment (DAT), using a scale of 0 (no control/injury) to 100 (complete plant death).

red rice (Oryza sativa) [5] = experiment: Pre-emergent evaluation on flooded rice, red rice control; format: in vivo; conditions: PRE, direct-seeded flooded rice
Experimental: as §1

CS(=O)(=O)c1ccc(C(=O)C2C(=O)CCCC2=O)c([N+](=O)[O-])c1 [Mesotrione, mesotrione]
large crabgrass control (words, FIG. 2) (large crabgrass): controlled | yellow nutsedge control (words, FIG. 2) (yellow nutsedge): controlled | Percent rice injury Cybonet ([1]; 14 DAT, 12.5 g ai/ha): 2 B % | Percent rice injury Cybonet ([1]; 14 DAT, 25 g ai/ha): 0 B % | Percent rice injury Cybonet ([1]; 14 DAT, 37.5 g ai/ha): 3 B % | Percent rice injury Cybonet ([1]; 14 DAT, 50 g ai/ha): 4 B % | Percent rice injury Cybonet ([1]; 14 DAT, 62.5 g ai/ha): 11 B % | Percent rice injury Cybonet ([1]; 14 DAT, 75 g ai/ha): 9 B % | Percent rice injury Cybonet ([1]; 14 DAT, 87.5 g ai/ha): 12 B % | Percent rice injury Cybonet ([1]; 14 DAT, 100 g ai/ha): 11 B % | Percent rice injury Cybonet ([1]; 21 DAT, 12.5 g ai/ha): 1 C % | Percent rice injury Cybonet ([1]; 21 DAT, 25 g ai/ha): 4 C % | Percent rice injury Cybonet ([1]; 21 DAT, 37.5 g ai/ha): 8 C % | Percent rice injury Cybonet ([1]; 21 DAT, 50 g ai/ha): 6 C % | Percent rice injury Cybonet ([1]; 21 DAT, 62.5 g ai/ha): 13 BC % | Percent rice injury Cybonet ([1]; 21 DAT, 75 g ai/ha): 32 ABC % | Percent rice injury Cybonet ([1]; 21 DAT, 87.5 g ai/ha): 44 AB % | Percent rice injury Cybonet ([1]; 21 DAT, 100 g ai/ha): 49 A % | Percent rice injury Cybonet ([1]; 28 DAT, 12.5 g ai/ha): 5 CD % | Percent rice injury Cybonet ([1]; 28 DAT, 25 g ai/ha): 7 CD % | Percent rice injury Cybonet ([1]; 28 DAT, 37.5 g ai/ha): 9 CD % | Percent rice injury Cybonet ([1]; 28 DAT, 50 g ai/ha): 7 CD % | Percent rice injury Cybonet ([1]; 28 DAT, 62.5 g ai/ha): 17 BCD % | Percent rice injury Cybonet ([1]; 28 DAT, 75 g ai/ha): 32 ABC % | Percent rice injury Cybonet ([1]; 28 DAT, 87.5 g ai/ha): 52 A % | Percent rice injury Cybonet ([1]; 28 DAT, 100 g ai/ha): 62 A % | Percent rice injury Jupiter ([2]; 14 DAT, 12.5 g ai/ha): 2 B % | Percent rice injury Jupiter ([2]; 14 DAT, 25 g ai/ha): 2 B % | Percent rice injury Jupiter ([2]; 14 DAT, 37.5 g ai/ha): 4 B % | Percent rice injury Jupiter ([2]; 14 DAT, 50 g ai/ha): 2 B % | Percent rice injury Jupiter ([2]; 14 DAT, 62.5 g ai/ha): 5 B % | Percent rice injury Jupiter ([2]; 14 DAT, 75 g ai/ha): 6 B % | Percent rice injury Jupiter ([2]; 14 DAT, 87.5 g ai/ha): 12 B % | Percent rice injury Jupiter ([2]; 14 DAT, 100 g ai/ha): 11 B % | Percent rice injury Jupiter ([2]; 21 DAT, 12.5 g ai/ha): 0 D % | Percent rice injury Jupiter ([2]; 21 DAT, 25 g ai/ha): 0 D % | Percent rice injury Jupiter ([2]; 21 DAT, 37.5 g ai/ha): 1 CD % | Percent rice injury Jupiter ([2]; 21 DAT, 50 g ai/ha): 3 CD % | Percent rice injury Jupiter ([2]; 21 DAT, 62.5 g ai/ha): 5 CD % | Percent rice injury Jupiter ([2]; 21 DAT, 75 g ai/ha): 13 BCD % | Percent rice injury Jupiter ([2]; 21 DAT, 87.5 g ai/ha): 22 BC % | Percent rice injury Jupiter ([2]; 21 DAT, 100 g ai/ha): 28 B % | Percent rice injury Jupiter ([2]; 28 DAT, 12.5 g ai/ha): 2 D % | Percent rice injury Jupiter ([2]; 28 DAT, 25 g ai/ha): 2 D % | Percent rice injury Jupiter ([2]; 28 DAT, 37.5 g ai/ha): 4 D % | Percent rice injury Jupiter ([2]; 28 DAT, 50 g ai/ha): 5 D % | Percent rice injury Jupiter ([2]; 28 DAT, 62.5 g ai/ha): 8 CD % | Percent rice injury Jupiter ([2]; 28 DAT, 75 g ai/ha): 20 BCD % | Percent rice injury Jupiter ([2]; 28 DAT, 87.5 g ai/ha): 44 B % | Percent rice injury Jupiter ([2]; 28 DAT, 100 g ai/ha): 41 BC % | Percent rice injury Taggart ([3]; 14 DAT, 12.5 g ai/ha): 4 B % | Percent rice injury Taggart ([3]; 14 DAT, 25 g ai/ha): 1 B % | Percent rice injury Taggart ([3]; 14 DAT, 37.5 g ai/ha): 4 B % | Percent rice injury Taggart ([3]; 14 DAT, 50 g ai/ha): 7 B % | Percent rice injury Taggart ([3]; 14 DAT, 62.5 g ai/ha): 12 B % | Percent rice injury Taggart ([3]; 14 DAT, 75 g ai/ha): 12 B % | Percent rice injury Taggart ([3]; 14 DAT, 87.5 g ai/ha): 19 B % | Percent rice injury Taggart ([3]; 14 DAT, 100 g ai/ha): 18 B % | Percent rice injury Taggart ([3]; 21 DAT, 12.5 g ai/ha): 1 D % | Percent rice injury Taggart ([3]; 21 DAT, 25 g ai/ha): 1 D % | Percent rice injury Taggart ([3]; 21 DAT, 37.5 g ai/ha): 1 D % | Percent rice injury Taggart ([3]; 21 DAT, 50 g ai/ha): 6 D % | Percent rice injury Taggart ([3]; 21 DAT, 62.5 g ai/ha): 10 CD % | Percent rice injury Taggart ([3]; 21 DAT, 75 g ai/ha): 25 BCD % | Percent rice injury Taggart ([3]; 21 DAT, 87.5 g ai/ha): 35 BC % | Percent rice injury Taggart ([3]; 21 DAT, 100 g ai/ha): 38 B % | Percent rice injury Taggart ([3]; 28 DAT, 12.5 g ai/ha): 2 C % | Percent rice injury Taggart ([3]; 28 DAT, 25 g ai/ha): 4 C % | Percent rice injury Taggart ([3]; 28 DAT, 37.5 g ai/ha): 4 C % | Percent rice injury Taggart ([3]; 28 DAT, 50 g ai/ha): 9 C % | Percent rice injury Taggart ([3]; 28 DAT, 62.5 g ai/ha): 9 C % | Percent rice injury Taggart ([3]; 28 DAT, 75 g ai/ha): 29 BC % | Percent rice injury Taggart ([3]; 28 DAT, 87.5 g ai/ha): 42 AB % | Percent rice injury Taggart ([3]; 28 DAT, 100 g ai/ha): 53 AB % | Percent red rice control (red rice (Oryza sativa) [4]; 14 DAT, 12.5 g ai/ha): 33 D % | Percent red rice control (red rice (Oryza sativa) [4]; 14 DAT, 25 g ai/ha): 70 B % | Percent red rice control (red rice (Oryza sativa) [4]; 14 DAT, 37.5 g ai/ha): 74 B % | Percent red rice control (red rice (Oryza sativa) [4]; 14 DAT, 50 g ai/ha): 79 A % | Percent red rice control (red rice (Oryza sativa) [4]; 14 DAT, 62.5 g ai/ha): 80 A % | Percent red rice control (red rice (Oryza sativa) [4]; 14 DAT, 75 g ai/ha): 80 A % | Percent red rice control (red rice (Oryza sativa) [4]; 14 DAT, 87.5 g ai/ha): 80 A % | Percent red rice control (red rice (Oryza sativa) [4]; 14 DAT, 100 g ai/ha): 80 A % | Percent red rice control (red rice (Oryza sativa) [4]; 21 DAT, 12.5 g ai/ha): 60 C % | Percent red rice control (red rice (Oryza sativa) [4]; 21 DAT, 25 g ai/ha): 81 B % | Percent red rice control (red rice (Oryza sativa) [4]; 21 DAT, 37.5 g ai/ha): 84 AB % | Percent red rice control (red rice (Oryza sativa) [4]; 21 DAT, 50 g ai/ha): 86 AB % | Percent red rice control (red rice (Oryza sativa) [4]; 21 DAT, 62.5 g ai/ha): 89 AB % | Percent red rice control (red rice (Oryza sativa) [4]; 21 DAT, 75 g ai/ha): 90 A % | Percent red rice control (red rice (Oryza sativa) [4]; 21 DAT, 87.5 g ai/ha): 90 A % | Percent red rice control (red rice (Oryza sativa) [4]; 21 DAT, 100 g ai/ha): 90 A % | Percent red rice control (red rice (Oryza sativa) [4]; 28 DAT, 12.5 g ai/ha): 62 B % | Percent red rice control (red rice (Oryza sativa) [4]; 28 DAT, 25 g ai/ha): 89 A % | Percent red rice control (red rice (Oryza sativa) [4]; 28 DAT, 37.5 g ai/ha): 88 A % | Percent red rice control (red rice (Oryza sativa) [4]; 28 DAT, 50 g ai/ha): 91 A % | Percent red rice control (red rice (Oryza sativa) [4]; 28 DAT, 62.5 g ai/ha): 92 A % | Percent red rice control (red rice (Oryza sativa) [4]; 28 DAT, 75 g ai/ha): 92 A % | Percent red rice control (red rice (Oryza sativa) [4]; 28 DAT, 87.5 g ai/ha): 95 A % | Percent red rice control (red rice (Oryza sativa) [4]; 28 DAT, 100 g ai/ha): 93 A % | red rice control (words, FIG. 3) (red rice (Oryza sativa) [4]; pre-emergent treatment at 25 g ai/ha, direct seeded dryland rice test): controlled | Percent red rice control (red rice (Oryza sativa) [5]; 14 DAT, 12.5 g ai/ha): 68 BC % | Percent red rice control (red rice (Oryza sativa) [5]; 14 DAT, 25 g ai/ha): 70 ABC % | Percent red rice control (red rice (Oryza sativa) [5]; 14 DAT, 37.5 g ai/ha): 78 AB % | Percent red rice control (red rice (Oryza sativa) [5]; 14 DAT, 50 g ai/ha): 81 AB % | Percent red rice control (red rice (Oryza sativa) [5]; 14 DAT, 62.5 g ai/ha): 81 AB % | Percent red rice control (red rice (Oryza sativa) [5]; 14 DAT, 75 g ai/ha): 84 A % | Percent red rice control (red rice (Oryza sativa) [5]; 14 DAT, 87.5 g ai/ha): 80 AB % | Percent red rice control (red rice (Oryza sativa) [5]; 14 DAT, 100 g ai/ha): 84 A % | Percent red rice control (red rice (Oryza sativa) [5]; 21 DAT, 12.5 g ai/ha): 91 A % | Percent red rice control (red rice (Oryza sativa) [5]; 21 DAT, 25 g ai/ha): 97 A % | Percent red rice control (red rice (Oryza sativa) [5]; 21 DAT, 37.5 g ai/ha): 98 A % | Percent red rice control (red rice (Oryza sativa) [5]; 21 DAT, 50 g ai/ha): 97 A % | Percent red rice control (red rice (Oryza sativa) [5]; 21 DAT, 62.5 g ai/ha): 97 A % | Percent red rice control (red rice (Oryza sativa) [5]; 21 DAT, 75 g ai/ha): 98 A % | Percent red rice control (red rice (Oryza sativa) [5]; 21 DAT, 87.5 g ai/ha): 98 A % | Percent red rice control (red rice (Oryza sativa) [5]; 21 DAT, 100 g ai/ha): 98 A % | Percent red rice control (red rice (Oryza sativa) [5]; 28 DAT, 12.5 g ai/ha): 93 A % | Percent red rice control (red rice (Oryza sativa) [5]; 28 DAT, 25 g ai/ha): 97 A % | Percent red rice control (red rice (Oryza sativa) [5]; 28 DAT, 37.5 g ai/ha): 100 A % | Percent red rice control (red rice (Oryza sativa) [5]; 28 DAT, 50 g ai/ha): 99 A % | Percent red rice control (red rice (Oryza sativa) [5]; 28 DAT, 62.5 g ai/ha): 99 A % | Percent red rice control (red rice (Oryza sativa) [5]; 28 DAT, 75 g ai/ha): 100 A % | Percent red rice control (red rice (Oryza sativa) [5]; 28 DAT, 87.5 g ai/ha): 98 A % | Percent red rice control (red rice (Oryza sativa) [5]; 28 DAT, 100 g ai/ha): 100 A %
